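Five compound concentrations were applied to cells in 96-well plates for 48 hours; endpoints were derived by simple linear interpolation of the resulting dose-response curve. GI50 marks 50% less growth.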 Activity calls are given as the source filed them. No stated cut-off is given here; in the data, active = GI50 up to about 1.1 µM and inactive = higher.
Assays:
Assay in all cases: NCI-60 cell line screen, 48 h
[1] = tested on: A498
[2] = tested on: COLO 205
[3] = tested on: OVCAR-3
[4] = tested on: K562
[5] = tested on: SR
[6] = tested on: NCI-H460
[7] = tested on: MDA-MB-231
[8] = tested on: Malme-3M
[9] = tested on: OVCAR-4
[10] = tested on: NCI-H23
[11] = tested on: HOP-62
[12] = tested on: UACC-257
[13] = tested on: CCRF-CEM
[14] = tested on: T47D
[15] = tested on: ACHN
[16] = tested on: 786-0
[17] = tested on: MOLT-4
[18] = tested on: EKVX
[19] = tested on: HOP-92
[20] = tested on: LOX IMVI

| SMILES | GI50 [1] | GI50 [2] | GI50 [3] | GI50 [4] | GI50 [5] | GI50 [6] | GI50 [7] | GI50 [8] | GI50 [9] | GI50 [10] | GI50 [11] | GI50 [12] | GI50 [13] | GI50 [14] | GI50 [15] | GI50 [16] | GI50 [17] | GI50 [18] | GI50 [19] | GI50 [20] |
| --- | --- | --- | --- | --- | --- | --- | --- | --- | --- | --- | --- | --- | --- | --- | --- | --- | --- | --- | --- | --- |
| C[N+]1(C)CCOC(O)(c2ccccc2)C1 (stereo not given) | > 100 µM (inactive) | > 100 µM (inactive) | > 100 µM (inactive) | > 100 µM (inactive) | > 100 µM (inactive) | > 100 µM (inactive) | > 100 µM (inactive) | > 100 µM (inactive) | > 100 µM (inactive) | > 100 µM (inactive) | > 100 µM (inactive) | > 100 µM (inactive) | > 100 µM (inactive) | > 100 µM (inactive) | > 100 µM (inactive) | > 100 µM (inactive) | > 100 µM (inactive) | > 100 µM (inactive) | > 100 µM (inactive) | > 100 µM (inactive) |
| CCCN1C(=O)/C(=C\c2ccc(OC)c(OC)c2)S/C1=N\c1ccccc1 | 38.3 µM (inactive) | > 100 µM (inactive) | > 100 µM (inactive) | > 100 µM (inactive) | > 100 µM (inactive) | > 100 µM (inactive) | > 100 µM (inactive) | > 100 µM (inactive) | > 100 µM (inactive) | > 100 µM (inactive) | 17.6 µM (inactive) | > 100 µM (inactive) | > 100 µM (inactive) | > 100 µM (inactive) | > 100 µM (inactive) | 17.5 µM (inactive) | > 100 µM (inactive) | 67.9 µM (inactive) | 50.1 µM (inactive) | > 100 µM (inactive) |
| COc1cc2c(cc1C[C@H]1[C@@H]3C[C@H]4c5c(c6ccccc6n5C)C[C@@H]([C@@H]3CO[C@]1(C)OC(C)=O)N4C)c1c(n2C)C2C[C@H]3C(C(C)=O)=COC[C@H]3[C@H](C1)N2C | 12.3 µM (inactive) | 3.08 µM (inactive) | 2.66 µM (inactive) | 6.03 µM (inactive) | 2.64 µM (inactive) | 3.38 µM (inactive) | 4.55 µM (inactive) | 3.18 µM (inactive) | 3.8 µM (inactive) | 7.06 µM (inactive) | 1.56 µM (inactive) | 4.03 µM (inactive) | 2.55 µM (inactive) | 2.2 µM (inactive) | 3.87 µM (inactive) | 2.86 µM (inactive) | 2.44 µM (inactive) | 0.403 µM (active) | 4.98 µM (inactive) | > 25 µM (inactive) |
| CNC(=O)OCc1c(COC(=O)NC)c(-c2ccc(-c3ccccc3)cc2)n(C)c1C | 0.504 µM (active) | 4.32 µM (inactive) | 2.54 µM (inactive) | 0.822 µM (active) | 0.116 µM (active) | 0.401 µM (active) | 2.69 µM (inactive) | 1.15 µM (inactive) | 3.08 µM (inactive) | 2.06 µM (inactive) | 2.79 µM (inactive) | 6.95 µM (inactive) | 0.502 µM (active) | 2.39 µM (inactive) | 0.493 µM (active) | 1.56 µM (inactive) | 0.299 µM (active) | 2.44 µM (inactive) | 2.99 µM (inactive) | 2.19 µM (inactive) |
| C=C(Cl)C(Cl)(CBr)CCCC(C)C (stereo not given) | 19.4 µM (inactive) | 19.4 µM (inactive) | 6.89 µM (inactive) | 26.5 µM (inactive) | > 75.7 µM (inactive) | 15.7 µM (inactive) | 20.7 µM (inactive) | > 100 µM (inactive) | 33 µM (inactive) | > 100 µM (inactive) | 13.7 µM (inactive) | 14.6 µM (inactive) | > 57.5 µM (inactive) | > 21.2 µM (inactive) | 13.3 µM (inactive) | 9.66 µM (inactive) | > 100 µM (inactive) | 18.3 µM (inactive) | 17.2 µM (inactive) | > 100 µM (inactive) |
| NC1(C(=O)O)CCCC1C(=O)O (stereo not given) | > 100 µM (inactive) | > 100 µM (inactive) | > 100 µM (inactive) | > 100 µM (inactive) | > 100 µM (inactive) | > 100 µM (inactive) | > 100 µM (inactive) | > 100 µM (inactive) | > 100 µM (inactive) | > 100 µM (inactive) | > 100 µM (inactive) | > 100 µM (inactive) | > 100 µM (inactive) | > 100 µM (inactive) | > 100 µM (inactive) | > 100 µM (inactive) | > 100 µM (inactive) | > 100 µM (inactive) | > 100 µM (inactive) | > 100 µM (inactive) |
| COc1ccc2[nH]c3c(c2c1)CCc1c(OC)cccc1-3 | > 100 µM (inactive) | > 100 µM (inactive) | > 100 µM (inactive) | 53.6 µM (inactive) | > 100 µM (inactive) | > 100 µM (inactive) | > 100 µM (inactive) | 75.2 µM (inactive) | 40.3 µM (inactive) | > 100 µM (inactive) | 53.8 µM (inactive) | > 100 µM (inactive) | 52.2 µM (inactive) | 14.5 µM (inactive) | > 100 µM (inactive) | > 100 µM (inactive) | 29.9 µM (inactive) | > 100 µM (inactive) | > 100 µM (inactive) | > 100 µM (inactive) |
| OCC1OC(O[C@H]2CN3[C@H](O)[C@@H](O)[C@H](O)[C@H]3C2O)C(O)C(O)C1O (stereo not given in full) | > 100 µM (inactive) | > 100 µM (inactive) | > 100 µM (inactive) | > 100 µM (inactive) | > 100 µM (inactive) | > 100 µM (inactive) | > 100 µM (inactive) | > 100 µM (inactive) | > 100 µM (inactive) | > 100 µM (inactive) | > 100 µM (inactive) | > 100 µM (inactive) | > 100 µM (inactive) | > 100 µM (inactive) | > 100 µM (inactive) | > 100 µM (inactive) | > 100 µM (inactive) | > 100 µM (inactive) | > 100 µM (inactive) | > 100 µM (inactive) |
| O=C1Nc2ccccc2/C1=C/c1c(Cl)[nH]c2ccc(O)cc12 | 2.31 µM (inactive) | 2.07 µM (inactive) | 1.77 µM (inactive) | 0.649 µM (active) | 0.177 µM (active) | 3.61 µM (inactive) | 1.79 µM (inactive) | 0.736 µM (active) | 3.94 µM (inactive) | 2.63 µM (inactive) | 2.59 µM (inactive) | 10.6 µM (inactive) | 1.4 µM (inactive) | 3.02 µM (inactive) | 4.7 µM (inactive) | 3.27 µM (inactive) | 1 µM (active) | 3.28 µM (inactive) | 5.69 µM (inactive) | 2.75 µM (inactive) |
| Cc1cccc(/C=N/NC(=S)N2CCCC2)n1 | 0.347 µM (active) | 0.325 µM (active) | 0.0255 µM (active) | 0.2 µM (active) | 0.0509 µM (active) | 0.337 µM (active) | 0.133 µM (active) | 0.0286 µM (active) | 0.195 µM (active) | 0.215 µM (active) | 0.209 µM (active) | 0.486 µM (active) | < 0.01 µM (active) | < 0.0306 µM (active) | 0.202 µM (active) | 0.199 µM (active) | 0.0687 µM (active) | 0.304 µM (active) | 1.65 µM (inactive) | 0.267 µM (active) |
| Nc1nc(Cl)cc(NCC2(CO)CC(OCc3ccccc3)C2)n1 (stereo not given) | 16.9 µM (inactive) | > 100 µM (inactive) | 49.2 µM (inactive) | 14.6 µM (inactive) | 25.1 µM (inactive) | 78.7 µM (inactive) | 63.2 µM (inactive) | > 100 µM (inactive) | 27.5 µM (inactive) | > 100 µM (inactive) | 68.4 µM (inactive) | > 100 µM (inactive) | > 100 µM (inactive) | 2.94 µM (inactive) | > 100 µM (inactive) | > 100 µM (inactive) | > 10 µM (inactive) | 7.82 µM (inactive) | > 100 µM (inactive) | 23.2 µM (inactive) |
| CNc1ncnc2c1cnn2COCC(O)CO (stereo not given) | > 100 µM (inactive) | > 100 µM (inactive) | > 100 µM (inactive) | > 100 µM (inactive) | > 100 µM (inactive) | > 100 µM (inactive) | > 100 µM (inactive) | > 100 µM (inactive) | > 100 µM (inactive) | > 100 µM (inactive) | > 100 µM (inactive) | > 100 µM (inactive) | > 100 µM (inactive) | > 100 µM (inactive) | > 100 µM (inactive) | > 100 µM (inactive) | > 100 µM (inactive) | > 100 µM (inactive) | > 100 µM (inactive) | > 100 µM (inactive) |
| FC(F)(F)c1nc2ccc(SSc3ccc4nc(C(F)(F)F)[nH]c4c3)cc2[nH]1 | > 10 µM (inactive) | 33.9 µM (inactive) | 36.6 µM (inactive) | 31.9 µM (inactive) | 30.7 µM (inactive) | 24.5 µM (inactive) | 23 µM (inactive) | > 10 µM (inactive) | 61.5 µM (inactive) | 47.5 µM (inactive) | 31.6 µM (inactive) | 35.9 µM (inactive) | > 10 µM (inactive) | 38.8 µM (inactive) | 88.7 µM (inactive) | 50.5 µM (inactive) | 27.3 µM (inactive) | > 10 µM (inactive) | > 10 µM (inactive) | 40.5 µM (inactive) |
| [N-]=[N+]=Nc1c(-c2ccccc2)c(Cl)nc2ccccc12 | 27.5 µM (inactive) | 20 µM (inactive) | 44.6 µM (inactive) | 45.7 µM (inactive) | 39.5 µM (inactive) | 31.5 µM (inactive) | 31.8 µM (inactive) | 34.8 µM (inactive) | 21.9 µM (inactive) | 33.5 µM (inactive) | 34.1 µM (inactive) | 25.5 µM (inactive) | > 100 µM (inactive) | 41 µM (inactive) | 19.6 µM (inactive) | 38 µM (inactive) | 51.4 µM (inactive) | 33 µM (inactive) | 22 µM (inactive) | 20.6 µM (inactive) |

Source: ChEMBL document CHEMBL1201862, “PubChem BioAssay data set” (2004)
